From US20240360153A1 (Regeneron Pharmaceuticals, Inc., priority 2023, published 2024)

Assays:
[1] = system: S6K1 (Thr389) phosphorylation (mTORC1 activity) in FKBP12 knock-out 293T cells; test: Inhibition of S6K1 (Thr389) phosphorylation in FKBP12 knock-out 293T cells (ELISA); assay type: cell-based, human; conditions: for selectivity for FKBP12 compared with RAD001 (in words): wild-type versus FKBP12 knock-out cells
From the text: Example Generation of FKBP 12 knock-out cells. A CRISPR/Cas9 system was used to deliver ribonucleoprotein complexes containing guide RNA sequences that target FKBP12 (ac[…], location 1369062; ccactactcac[…], location 1369181) in HEK293T cells using Lipofectamine CRISPRMAX transfection reagent (Invitrogen CMAX00008). Cell clones were screened by immunoblotting with anti-FKBP-specific antibody (Novus, NB300-508). Single cells that were deficient for FKBP12 protein were selected and cloned.
(§1) Treatment of wild-type (WT) and FKBP12 knock-out 293T cells with RAD001 (everolimus) and test compounds. WT and FKBP12 knock-out 293T cells were cultured in Dulbecco's modified Eagle's medium (Gibco #11971-025) supplemented with 10% fetal bovine serum (Gibco #26140-079). Cells were plated at a density of 15,000 cells per well in poly-D-Lysine coated 96-well plates (Corning, #354461) and were incubated at 37° C., 5% CO2 for 24 hours until they reached ˜80% confluence. Cells were treated with RAD001 or test compounds reconstituted in dimethyl sulfoxide (DMSO) using a 8-11-point dose range, from 0.001 pM to 10 μM. All treatments were performed in duplicates for 2 hours at 37° C. Cell culture media supplemented with blank dimethyl sulfoxide (DMSO) was used as a negative control for all compounds. Phosphorylated amounts of S6K1 (Thr389) were measured using an ELISA kit (Invitrogen 85-86052-11), following the manufacture's protocol.
(§2) S6K1 is an immediate downstream target of mTORC1 and therefore phosphorylation of S6K1 at Thr389 residue is used to measure mTORC1 activity (PMID: 16968213). Amounts of phosphorylated S6K1 (Thr389) were measured in WT and FKBP12 knock-out 293T cells treated with either RAD001 or Compound 44 (FIGS. 1A and 1B), and Compound 45 (FIGS. 1C and 1D).

[2] = system: S6K1 (Thr389) phosphorylation (mTORC1 activity) in wild-type (WT) 293T cells; test: Inhibition of S6K1 (Thr389) phosphorylation in wild-type 293T cells (ELISA); assay type: cell-based, human; conditions: for IC50: Homo sapiens, HEK-293T, 2 h, wild-type 293T cells, 2 hours treatment; for extent of inhibition of S6K1 (Thr389) phosphorylation / fold lower potency compared with RAD001 (by IC50): wild-type cells; for extent of inhibition of S6K1 (Thr389) phosphorylation: with increasing concentrations
Experimental: as §1, §2

[3] = In vitro microsomal metabolic stability, CD-1 mouse liver microsomes; assay type: in vitro ADME; conditions: for CLint scaled at 1 µM / microsomal CLint at 1 µM: CD-1, mouse, mouse liver microsomes, pH 7.2; for half-life at 1 µM: CD-1, pH 7.2, 0.5 mg/ml protein, NADPH; for half-life at 1 µM / Remaining (T = 60 min) / Remaining (T = NCF60 min): Mouse liver microsomes; for Remaining (T = 60 min): with NADPH; for Remaining (T = NCF60 min): without NADPH regenerating system; for Remaining (T = 60 min) / Remaining (T = NCF60 min): 60 min
Experimental: (§3) Buffers: PBK Buffer: 50 mM potassium phosphate buffer (PPB), pH 7.2, with 3.3 mM Magnesium Chloride.
(§4) TA Intermediate solution: Compound or control (3 μL) diluted from stock solution (10 mM) with 297 μL 90.0% methanol/water. (Conc: 100 μM; 1.0% DMSO, 89.1% MeOH).
(§5) Control cocktail intermediate solution: Each control (3 μL) was diluted with 291 μL 90.0% methanol/water.
(§6) Diluted TA intermediate stock solution and PC control stock were made by transferring 80 μL of 100 μM TA stock solution into new tubes and then adding 720 μL of 1.0% DMSO in 50 mM potassium phosphate buffer (conc. 10 μM; 1.0% DMSO, 8.91% MeOH).
(§7) Preparation of Liver microsomes working solution (1.25×)(final Conc.: 0.5 mg/mL).
(§8) Acetonitrile:methanol (9:1, v/v)(including 200 ng/mL tolbutamide and 200 ng/ml labetalol hydrochloride as internal standards).
(§9) Working solution: Intermediate solution (80 μL) was diluted with 720 μL 1.0% DMSO in 50 mM potassium phosphate buffer (Conc.: 10 μM; 1.0% DMSO, 8.91% MeOH)
(§10) Procedure: Stock solution was added to each of the time point plates. Microsomes solution (360 μL/well), TA/PC (45 μL/well), and NADPH (45 μL/well) min. (Conc: 1.0 μM, 0.10% DMSO, 0.891% MeOH) were added to the incubation plates. To the T60 and NCF60 plate, TA (15 ul/well) and Microsomes (120 ul) were added. To the blank plate, microsome (50 ul/well) with stop solution (150 ul/well) were added. At the end of each time point, 50 ul/well was aliquoted from the incubation plate. The sampling plates were shaken for approximately 10 min. on a shaker and the samples were centrifuged at 4000 rpm for 15 min. Supernatant (120 μL) was transferred for LC/MS/MS.Compounds from Table 3 were incubated at 37° C. with liver microsomes (pooled from multiple donors) at 1 μM in the presence of a NADPH regenerating system at 0.5 mg/ml microsomal protein. Positive controls included testosterone (3A4 substrate), propafenone (2D6) and diclofenac (2C9), which were incubated with microsomes in the presence of an NADPH regenerating system. At time points (0, 5, 10, 20, 30 and 60 minutes), samples were removed and immediately mixed with cold acetonitrile containing the internal standard (IS). Test compounds incubated with microsomes without the NADPH regenerating system for 60 min are also included. A single point for each test condition (n=1) was obtained, and samples were analyzed by LC/MS/MS. Disappearance of the test compound was assessed based on peak area ratios of analyte/IS (no standard curve).

[4] = In vitro microsomal metabolic stability, human liver microsomes; assay type: in vitro ADME; conditions: for Remaining (T = 60 min) / Remaining (T = NCF60 min) / half-life at 1 µM: Human liver microsomes; for Remaining (T = 60 min): with NADPH; for Remaining (T = NCF60 min): without NADPH regenerating system; for Remaining (T = 60 min) / Remaining (T = NCF60 min): 60 min; for CLint scaled at 1 µM / microsomal CLint at 1 µM: human, human liver microsomes; for CLint scaled at 1 µM / microsomal CLint at 1 µM / half-life at 1 µM: pH 7.2; for half-life at 1 µM: 0.5 mg/ml protein, NADPH
Experimental: as §3, §4, §5, §6, §7, §8, §9, §10

CLint scaled at 1 µM [3] [mL/min/kg]	microsomal CLint at 1 µM [3] [µL/min/mg]	half-life at 1 µM [3] [min]	Remaining (T = 60 min) [3] [%]	Remaining (T = NCF60 min) [3] [%]	Remaining (T = 60 min) [4] [%]	Remaining (T = NCF60 min) [4] [%]	CLint scaled at 1 µM [4] [mL/min/kg]	microsomal CLint at 1 µM [4] [µL/min/mg]	half-life at 1 µM [4] [min]	SMILES	IC50 of inhibition of S6K1 (Thr389) ([1]; FKBP12 knock-out 293T cells)	inhibition of S6K1 (Thr389) phosphorylation in the absence of FKBP12 (in words) ([1]; FKBP12 knock-out cells)	selectivity for FKBP12 compared with RAD001 (in words) [1]	IC50 [2] [nM]	extent of inhibition of S6K1 (Thr389) phosphorylation [2]	fold lower potency compared with RAD001 (by IC50) [2] [fold]	concentration achieving 20% inhibition of S6K1 (Thr389) phosphorylation ([1]; FKBP12 knock-out cells) [nM]	inhibition at 10 µM ([1]; Homo sapiens, HEK-293T, FKBP12 knock-out cells, 10 μM (highest tested concentration)) [%]
65.7	16.6	83.5	59.40	106	19.40	84.00	47.5	52.8	26.3	CO[C@@H]1CC(C[C@@H](C)[C@@H]2CC[C@H](C)/C=C(\C)[C@@H](O)[C@@H](OC)C(=O)[C@H](C)C[C@H](C)/C=C/C=C/C=C(\C)C(Nc3cncc(C)n3)CC3CC[C@@H](C)[C@@](O)(O3)C(=O)C(=O)N3CCCC[C@H]3C(=O)O2)CC[C@H]1O (stereo partly drawn) [Compound 28, (3S,6S,7E,9R,10R,12R,14S,15E,17E,19E,23S,26R,27R,34aS)-9,27-dihydroxy-3-((R)-1-((1S,3R,4R)-4-hydroxy-3-methoxycyclohexyl)propan-2-yl)-10-methoxy-6,8,12,14,20,26-hexamethyl-21-((6-methylpyrazin-2-yl)amino)-5,6,9,10,12,13,14,21,22,23,24,25,26,27,32,33,34,34a-octadecahydro-3H-23,27-epoxypyrido[2,1-c][1]oxa[4]azacyclohentriacontine-1,11,28,29(4H,31H)-tetraone]	not measurable/detectable	behaved in a similar fashion to RAD001	not greater compared with RAD001	3	complete inhibition			
42.3	10.7	130	67	139	15	102	59.6	66.2	20.9	CO[C@@H]1C[C@H](C[C@@H](C)[C@@H]2CC[C@H](C)/C=C(\C)[C@@H](O)[C@@H](OC)C(=O)[C@H](C)C[C@H](C)/C=C/C=C/C=C(\C)C(Nc3ccc(C)cc3)C[C@@H]3CC[C@@H](C)[C@@](O)(O3)C(=O)C(=O)N3CCCCC3C(=O)O2)CC[C@H]1O (stereo partly drawn) [Compound 49, (3S,6S,7E,9R,10R,12R,14S,15E,17E,19E,23S,26R,27R,34aS)-9,27-dihydroxy-3-((R)-1-((1S,3R,4R)-4-hydroxy-3-methoxycyclohexyl)propan-2-yl)-10-methoxy-6,8,12,14,20,26-hexamethyl-21-(p-tolylamino)-5,6,9,10,12,13,14,21,22,23,24,25,26,27,32,33,34,34a-octadecahydro-3H-23,27-epoxypyrido[2,1-c][1]oxa[4]azacyclohentriacontine-1,11,28,29(4H,31H)-tetraone]		did not inhibit S6K1 (Thr389)phosphorylation at any tested concentrations	relatively more selective to FKBP12 compared with RAD001	9.5	near complete inhibition	29		
										COC1C(=O)[C@H](C)C[C@H](C)/C=C/C=C/C=C(\C)C(N(C)S(=O)(=O)c2ccccc2)C[C@@H]2CC[C@@H](C)[C@@](O)(O2)C(=O)C(=O)N2CCCC[C@H]2C(=O)OC([C@H](C)CC2CC[C@@H](O)C(OC)C2)CC[C@H](C)/C=C(\C)C1O (stereo partly drawn) [Compound 73, N-((3S,6S,7E,9R,10R,12R,14S,15E, 17E,19E,23S,26R,27R,34aS)-9,27-dihydroxy-3-((R)-1-((1S,3R,4R)-4-hydroxy-3-methoxycyclohexyl)propan-2-yl)-10-methoxy-6,8,12,14,20,26-hexamethyl-1,11,28,29-tetraoxo-1,4,5,6,9,10,11,12,13,14,21,22,23,24,25,26,27,28,29,31,32,33,34,34a-tetracosahydro-3H-23,27-epoxypyrido[2,1-c][1]oxa[4]azacyclohentriacontin-21-yl)-N-methylbenzenesulfonamide]			not FKBP12 selective	2.22	near complete inhibition	13	2.7	~60
										CO[C@@H]1C[C@H](C[C@@H](C)[C@@H]2CC[C@H](C)/C=C(\C)[C@@H](O)[C@@H](OC)C(=O)[C@H](C)C[C@H](C)/C=C/C=C/C=C(\C)C(Nc3cccc(C#N)c3)C[C@@H]3CC[C@@H](C)[C@@](O)(O3)C(=O)C(=O)N3CCCCC3C(=O)O2)CC[C@H]1O (stereo partly drawn) [Compound 57, 3-(((3S,6S,7E,9R,10R,12R,14S,15E,17E,19E,23S,26R,27R,34aS)-9,27-dihydroxy-3-((R)-1-((1S,3R,4R)-4-hydroxy-3-methoxycyclohexyl)propan-2-yl)-10-methoxy-6,8,12,14,20,26-hexamethyl-1,11,28,29-tetraoxo-1,4,5,6,9,10,11,12,13,14,21,22,23,24,25,26,27,28,29,31,32,33,34,34a-tetracosahydro-3H-23,27-epoxypyrido[2,1-c][1]oxa[4]azacyclohentriacontin-21-yl)amino)benzonitrile]		inhibited the mTORC1 signaling in a dose dependent manner	relatively not FKBP12 selective	3.68	near complete inhibition	44		
										CO[C@@H]1C[C@H](C[C@@H](C)[C@@H]2CC[C@H](C)/C=C(\C)[C@@H](O)[C@@H](OC)C(=O)[C@H](C)C[C@H](C)/C=C/C=C/C=C(\C)C(Nc3cnccn3)C[C@@H]3CC[C@@H](C)[C@@](O)(O3)C(=O)C(=O)N3CCCCC3C(=O)O2)CC[C@H]1O (stereo partly shown) [Compound 52]		did not inhibit S6K1 (Thr389)phosphorylation at any tested concentrations	selective to FKBP12	9.15	near complete inhibition	25		
